This note sets out measurements from CN106581687A, “以乳清蛋白为基质的桃柁酚抗菌纳米水凝胶及其制备方法” (Jilin University, priority 2016, dated 2017).

SMILES strings stand for the structures. In brackets after ≈: the same amount, converted by molar mass.

In the test the test system is Staphylococcus aureus (金黄色葡萄球菌), S.aureus strains ATCC 29213. Description: 最小抑菌浓度MIC (minimum inhibitory concentration of totarol). It counts as cell-based. Particulars: value used for loading in the Example concerned.

As a reminder, the MIC is the least concentration at which growth counts as inhibited. Read a low MIC as greater potency. For the setting “Staphylococcus aureus, ATCC29213, totarol against Staphylococcus aureus”, `CC(C)c1c(O)ccc2c1CC[C@H]1C(C)(C)CCC[C@]21C` [桃柁酚, 桃柁酚(Totarol)] yielded an MIC of 2 µg/mL (≈ 6.98 µM). Further, under “totarol against Staphylococcus aureus”, the “minimum inhibitory concentration (MIC value)” value was found to be 4 µg/mL (≈ 14 µM).
